Laboratory results taken from patent publication US20220313651A1, “INHIBITORS OF ZIKA VIRUS INFECTION” (priority 2019, published 2022).
Where two headings read alike, the source gives them in different places.

How the values were obtained:
[1] = target: T1, ZIKV EDIII protein (E residues 298-409) (Zika virus, UniProt Q32ZE1, D679E/I627V/V603I/V629A); format: binding; conditions: ELISA
T1 construct: human Fc (C)
Description: (§1) Binding of compounds (NPs) to ZIKV full-length E (FIG. 3A), EDIII (FIG. 3B), and NS2B-NS3 (FIG. 3C) proteins, was detected by ELISA. The percent binding was reported in the presence or absence of serially diluted NPs using the formula (1-[E/EDIII-NP]/[E/EDIII])×100 (for E/EDIII binding) or (1-[NS2B-NS3-NP]/[NS2B-NS3])×100 (for NSEB-NS3 binding). […] The concentrations of ZIKV EDIII and mAbs were 1.5 and 0.5 μg/ml, respectively. […] The concentrations of substrate (Bz-Nle-Lys-Lys-Arg-AMC) and ZIKV NS2B-NS3 protein were 4 μM and 1 μg/ml, respectively. The percent inhibition of protease activity was calculated in the presence or absence of serially diluted compounds using the formula (1-[NS2B-NS3-substrate-NP]/[NS2B-NS3-substrate])×100. The IC50 values were calculated based on the percent inhibition. The data are expressed as mean±s.e.m. (n=4).
The data are expressed as mean±s.e.m. (n=4), and DMSO was used as negative control. Surface plasmon resonance (SPR) analysis of the binding between ST087010 and ZIKV EDIII (FIG. 6D) or NS2B-NS3 (FIG. 6E) protein was performed. Binding affinity was shown as KD (equilibrium dissociation constant).
The binding between the Z-medicament and ZIKV full-length E protein, EDIII protein (E residues 298-409 fused with a C-terminal human Fc), or NS2B-NS3 protease was carried out by ELISA. Briefly, ELISA plates were pre-coated with the proteins described above at 4° C. overnight, and blocked with 2% fat-free milk at 37° C. for 2 h. Serial dilutions of the Z-medicament or DMSO (control) were then added to the plates and incubated at 37° C. for 2 h. The plates were washed with PBS containing Tween-20 (PBST), and incubated at 37° C. for 1 h with ZIKV EDIII-specific human mAb ZKA64-LALA (0.5 μg/ml) (for binding to ZIKV full-length E and EDIII proteins), or mouse sera specific to ZIKV NS2B-NS3 (for binding to NS2B-NS3 protease). The plates were washed with PBST, and incubated with horseradish peroxidase (HRP)-conjugated anti-human IgG-Fab (1:3000) or anti-mouse IgG (1:3000) antibody at 37° C. for 1 h. The 3,3′,5,5′-tetramethylbenzidine (TMB) substrate was added to the plates, and the reaction was stopped by 1 N H2SO4. Absorbance at 450 nm (A450 value) was measured by ELISA microplate reader.
Briefly, ELISA plates were coated with each protein (1 μg/ml) at 4° C. overnight, and were then incubated with blocking buffer containing 2% fat-free milk in PBST at 37° C. for 2 h. The above compounds, or DMSO control, at serial dilutions were added to the plates, and incubated at 37° C. for 2 h. […] Absorbance at 450 nm (A450 values) was measured by an ELISA microplate reader. EC50 values were calculated.

ZIKV NS2B-NS3 protease = target: T2, ZIKV NS2B-NS3 protease (Zika virus, UniProt Q32ZE1); experiment: Fluorescence-based inhibition of NS2B-NS3 protease activity; format: biochemical; conditions: substrate Bz-Nle-Lys-Lys-Arg-AMC 4 μM, protein 1 μg/ml
T2 construct: 49-97) and NS2 protein (residues 1-185) through a covalent; made in house; host or cells: E. coli
Description: as §1

[2] = test system: ZIKV human strain PAN2015 (2015/Panama); experiment: microbe, parasite or virus in culture; format: cell-based, Zika virus (ZIKV); conditions: Vero E6 cells
Source text: (§2) Vero E6 and LLC-MK2 cells were maintained in Dulbecco's Modified Eagle Medium (DMEM) supplemented with 8% fetal bovine serum (FBS) and penicillin and streptomycin (P/S). C6/36 cells were maintained in Eagle's Minimal Essential Medium (EMEM) supplemented with 5% FBS and P/S. ZIKV strains, including human strains PAN2016 (2016/Panama), R116265 (2016/Mexico), PAN2015 (2015/Panama), FLR (2015/Colombia), R103451 (2015/Honduras), PRVABC59 (2015/Puerto Rico), PLCal_ZV (2013/Thailand), and IbH 30656 (1968/Nigeria), mosquito strain MEX 2-81 (2016/Mexico), and rhesus macaque strain MR 766 (1947/Uganda), were used in the studies. These ZIKV strains were cultured in Vero E6 cells, and viral titers were detected by a standard plaque-forming assay. DENV human strains, including type 1: DENV-1-V1792 (2007/Vietnam), type 2: DENV-2-V594 (2006/Puerto Rico), type 3: DENV-3-V1043 (2006/Puerto Rico), and type 4: DENV-4-PR 06-65-740 (2006/Puerto Rico), were cultured in C6/36 cells, and the viral titers were determined by plaque-forming assay as described above.
(§3) A plaque reduction inhibition assay was carried out to measure the inhibitory activity of Z-medicaments against infections of ZIKV and DENV. […] The compound-virus mixtures were then transferred to Vero E6 cells (10^5/well) and incubated at 37° C. for 1 h. […] The cells were washed thoroughly with PBS, and overlaid with DMEM containing 1% carboxymethyl cellulose and 2% FBS, followed by in vitro culture at 37° C. for 4-5 days and then staining with 0.5% crystal violet.
(§4) After removal of the unbound compounds by centrifugation after addition of 3% PEG-6000, ZIKV was incubated with Vero E6 cells at 37° C. for 1 h. The cells were then washed with PBS, overlaid with DMEM containing 1% carboxymethyl cellulose and 2% FBS, and cultured at 37° C. for 4-5 days, followed by staining with 0.5% crystal violet.

[3] = test system: ZIKV mosquito strain MEX 2-81 (2016/Mexico); experiment: Plaque reduction inhibition assay in Vero E6 cells, ZIKV MEX 2-81; format: cell-based, Zika virus (ZIKV)
Source text: as §2, §3, §4

Structure (SMILES): C[C@H]1[C@H]2CC[C@H]3[C@@H]4CC=C5C[C@@H](N(C)C)CC[C@]5(C)[C@H]4CC[C@]23CN1C [Conessine, conessine]
- Binding to ZIKV EDIII protein (in words) [1]: bound to no ZIKV proteins tested

Structure (SMILES): COc1cc(/C=C/C(=O)CC(=O)/C=C/c2ccc(O)c(OC)c2)ccc1O [Curcumin, curcumin]
- Inhibition of NS2B-NS3 protease activity (in words) (ZIKV NS2B-NS3 protease): low inhibitory activity

Structure (SMILES): C[C@@H]1CC[C@@]2(OC1)O[C@H]1[C@@H](O)[C@H]3[C@@H]4CC[C@H]5C[C@@H](O[C@@H]6O[C@H](CO)[C@H](O[C@@H]7O[C@H](CO)[C@@H](O)[C@H](O[C@@H]8OC[C@@H](O)[C@H](O)[C@H]8O)[C@H]7O[C@@H]7O[C@H](CO)[C@H](O)[C@H](O[C@@H]8O[C@H](CO)[C@@H](O)[C@H](O)[C@H]8O)[C@H]7O)[C@H](O)[C@H]6O)[C@H](O)C[C@]5(C)[C@H]4CC[C@]3(C)[C@H]1[C@@H]2C [Digitonin, digitonin]
- Binding to ZIKV EDIII protein (in words) [1]: bound to no ZIKV proteins tested
- IC50 ([2]; Zika virus, Vero C1008, Table 1, read-out: IC50 against ZIKV strain PAN2015): 5 ± 0.01 µM

Structure (SMILES): Cc1cc2c(C(C)C)c(O)c(O)c(C=O)c2c(O)c1-c1c(C)cc2c(C(C)C)c(O)c(O)c(C=O)c2c1O [Gossypol, gossypol]
- IC50 ([3]; Zika virus, Vero C1008, read-out: IC50 against ZIKV strain MEX 2-81): 2.79 ± 0.01 µM
- IC50 ([3]; Zika virus, Vero C1008, read-out: ZIKV strains IC50, MEX 2-81): 2.93 ± 0.01 µM

Structure (SMILES): Cc1cc2c(C(C)C)c(O)c(O)c(/C=N/n3c(=O)[nH][nH]c3=O)c2c(O)c1-c1c(C)cc2c(C(C)C)c(O)c(O)c(/C=N/n3c(=O)[nH][nH]c3=O)c2c1O [ST087010]
- IC50 ([3]; Vero E6 cells, Table 7, gossypol derivatives, read-out: ZIKV strains IC50, MEX 2-81): 2.92 ± 0.25 µM
- EC50 ([1]; detected with mAb ZKA64-LALA, read-out: EC50, binding to ZIKV EDIII protein): 6.13 µM
- IC50 (ZIKV NS2B-NS3 protease; read-out: IC50, inhibition of ZIKV NS2B-NS3 protease cleavage): 4.84 µM
- IC50 ([2]; Table 7, gossypol derivatives, read-out: ZIKV strains IC50, PAN2015): 3.5 ± 0.06 µM
